# Laboratory results as given in US20090087845A1, “Genetic Markers Of True Low Birth Weight” (priority 2005, published 2009).
# Test system: placental gene expression
smiles,measurement,setting,value
CCO [alcohol],"Mean 5%, probe set 1385639_at","5% alcohol group, Mean Contr 4.981165",4.504
same,"Mean 5%, Inpp1 (1394340_at)","5% alcohol group, Mean Contr 5.05511",4.704
same,"Mean 5%, RT1-Aw2 (1379496_at)","5% alcohol group, Mean Contr 5.19844",4.65
same,"Mean 5%, Trp53rk_predicted (1379488_at)","5% alcohol group, Mean Contr 5.228085",4.923
same,"Mean 5%, Enpp5 (1388926_at)","5% alcohol group, Mean Contr 5.277582",4.894
same,"Mean 5%, Prdm2_mapped (1381229_at)","5% alcohol group, Mean Contr 5.346211",4.872
same,"Mean 5%, RGD1564011_predicted (1375191_at)","5% alcohol group, Mean Contr 5.471081",5.008
same,"Mean 5%, Centa2 (1369725_at)","5% alcohol group, Mean Contr 5.497342",5.089
same,"Mean 5%, Transcribed locus (1383789_at)","5% alcohol group, Mean Contr 5.574571",5.342
same,"Mean 5%, Transcribed locus (1392286_at)","5% alcohol group, Mean Contr 5.585624",5.242
same,"Mean 5%, Mcpt6 (1387334_at)","5% alcohol group, Mean Contr 5.601581",5.206
same,"Mean 5%, Ggps1 (1377866_a_at)","5% alcohol group, Mean Contr 5.646626",5.273
same,"Mean 5%, Transcribed locus (1389718_at)","5% alcohol group, Mean Contr 5.751838",5.09
same,"Mean 5%, Transcribed locus (1377021_at)","5% alcohol group, Mean Contr 5.80011",5.149
same,"Mean 5%, Cp (1368418_a_at)","5% alcohol group, Mean Contr 5.816824",5.332
same,"Mean 5%, LOC303515 (1383571_at)","5% alcohol group, Mean Contr 5.867879",5.339
same,"Mean 5%, Transcribed locus (1389111_at)","5% alcohol group, Mean Contr 5.875325",5.42
same,"Mean 5%, Transcribed locus (1393980_at)","5% alcohol group, Mean Contr 5.991591",5.335
same,"Mean 5%, Pcmtd2_predicted (1374454_at)","5% alcohol group, Mean Contr 6.083112",5.464
same,"Mean 5%, Plek (1390687_at)","5% alcohol group, Mean Contr 6.105485",5.536
same,"Mean 5%, Cdca7 (1374540_at)","5% alcohol group, Mean Contr 6.195992",5.287
same,"Mean 5%, Cul2_predicted (1378127_at)","5% alcohol group, Mean Contr 6.258107",5.629
same,"Mean 5%, Pex6 (1368264_at)","5% alcohol group, Mean Contr 6.259265",5.664
same,"Mean 5%, St3gal3 (1373607_at)","5% alcohol group, Mean Contr 6.298338",5.956
same,"Mean 5%, Kbtbd4_predicted (1374614_at)","5% alcohol group, Mean Contr 6.314496",5.868
same,"Mean 5%, Phyh (1393245_at)","5% alcohol group, Mean Contr 6.483711",5.646
same,"Mean 5%, LOC287533 (1373627_at)","5% alcohol group, Mean Contr 6.526312",5.83
same,"Mean 5%, Transcribed locus (1388465_at)","5% alcohol group, Mean Contr 6.549543",6.133
same,"Mean 5%, Mss4 (1376745_at)","5% alcohol group, Mean Contr 6.629539",6.082
same,"Mean 5%, Plag1 (1391714_at)","5% alcohol group, Mean Contr 6.670053",5.859
same,"Mean 5%, Sumf1_predicted (1389833_at)","5% alcohol group, Mean Contr 6.839621",6.464
same,"Mean 5%, Polr3e_predicted (1374415_at)","5% alcohol group, Mean Contr 6.849002",6.356
same,"Mean 5%, RGD1308959 (1399108_at)","5% alcohol group, Mean Contr 6.859582",6.437
same,"Mean 5%, Wig1 (1387021_at)","5% alcohol group, Mean Contr 6.895168",6.437
same,"Mean 5%, probe set 1379314_at","5% alcohol group, Mean Contr 6.970231",6.195
same,"Mean 5%, Ddx59 (1383635_at)","5% alcohol group, Mean Contr 6.981191",6.627
same,"Mean 5%, Rnd3 (1394077_at)","5% alcohol group, Mean Contr 7.018906",6.516
same,"Mean 5%, probe set 1393037_at","5% alcohol group, Mean Contr 7.020197",6.711
same,"Mean 5%, Slc39a4_predicted (1374366_at)","5% alcohol group, Mean Contr 7.252498",6.553
same,"Mean 5%, RGD1305243_predicted (1374076_at)","5% alcohol group, Mean Contr 7.300542",6.98
same,"Mean 5%, Transcribed locus (1393310_at)","5% alcohol group, Mean Contr 7.364799",6.579
same,"Mean 5%, Gusb (1367901_at)","5% alcohol group, Mean Contr 7.420203",6.975
same,"Mean 5%, probe set 1392953_at","5% alcohol group, Mean Contr 7.435411",6.789
same,"Mean 5%, Crsp9_predicted (1377263_at)","5% alcohol group, Mean Contr 7.471023",6.737
same,"Mean 5%, probe set 1389582_at","5% alcohol group, Mean Contr 7.588214",6.742
same,"Mean 5%, Transcribed locus (1393226_at)","5% alcohol group, Mean Contr 7.705027",6.779
same,"Mean 5%, RGD1565289_predicted (1375297_at)","5% alcohol group, Mean Contr 7.731478",6.938
same,"Mean 5%, Zfp207 (1394591_at)","5% alcohol group, Mean Contr 8.125942",7.43
same,"Mean 5%, Akr7a2 (1367843_at)","5% alcohol group, Mean Contr 8.276972",7.547
same,"Mean 5%, Tparl (1373392_at)","5% alcohol group, Mean Contr 8.308305",8.164
same,"Mean 5%, Mcts1 (1388660_at)","5% alcohol group, Mean Contr 8.623529",8.191
same,"Mean 5%, Hadhsc (1370237_at)","5% alcohol group, Mean Contr 8.793343",8.481
same,"Mean 5%, Asah1 (1374770_at)","5% alcohol group, Mean Contr 9.074708",8.62
same,"Mean 5%, Arts1 (1368356_a_at)","5% alcohol group, Mean Contr 9.55972",9.182
same,"Mean 5%, Ndufb5_predicted (1388304_at)","5% alcohol group, Mean Contr 10.12286",9.747
same,"Mean 5%, MGC72992 (1389325_at)","5% alcohol group, Mean Contr 10.24563",9.919
same,"Mean 5%, Vps35_mapped (1372806_at)","5% alcohol group, Mean Contr 10.46183",10.13
same,"Mean 10%, probe set 1385639_at","10% alcohol group, Mean Contr 4.981165",4.259
same,"Mean 10%, Inpp1 (1394340_at)","10% alcohol group, Mean Contr 5.05511",4.269
same,"Mean 10%, RT1-Aw2 (1379496_at)","10% alcohol group, Mean Contr 5.19844",4.376
same,"Mean 10%, Trp53rk_predicted (1379488_at)","10% alcohol group, Mean Contr 5.228085",4.494
same,"Mean 10%, Enpp5 (1388926_at)","10% alcohol group, Mean Contr 5.277582",4.551
same,"Mean 10%, Prdm2_mapped (1381229_at)","10% alcohol group, Mean Contr 5.346211",4.661
same,"Mean 10%, RGD1564011_predicted (1375191_at)","10% alcohol group, Mean Contr 5.471081",4.639
same,"Mean 10%, Centa2 (1369725_at)","10% alcohol group, Mean Contr 5.497342",4.692
same,"Mean 10%, Transcribed locus (1383789_at)","10% alcohol group, Mean Contr 5.574571",4.986
same,"Mean 10%, Transcribed locus (1392286_at)","10% alcohol group, Mean Contr 5.585624",4.791
same,"Mean 10%, Mcpt6 (1387334_at)","10% alcohol group, Mean Contr 5.601581",4.849
same,"Mean 10%, Ggps1 (1377866_a_at)","10% alcohol group, Mean Contr 5.646626",4.808
same,"Mean 10%, Transcribed locus (1389718_at)","10% alcohol group, Mean Contr 5.751838",4.745
same,"Mean 10%, Transcribed locus (1377021_at)","10% alcohol group, Mean Contr 5.80011",4.752
same,"Mean 10%, Cp (1368418_a_at)","10% alcohol group, Mean Contr 5.816824",5.05
same,"Mean 10%, LOC303515 (1383571_at)","10% alcohol group, Mean Contr 5.867879",5.002
same,"Mean 10%, Transcribed locus (1389111_at)","10% alcohol group, Mean Contr 5.875325",4.794
same,"Mean 10%, Transcribed locus (1393980_at)","10% alcohol group, Mean Contr 5.991591",4.943
same,"Mean 10%, Pcmtd2_predicted (1374454_at)","10% alcohol group, Mean Contr 6.083112",4.612
same,"Mean 10%, Plek (1390687_at)","10% alcohol group, Mean Contr 6.105485",4.933
same,"Mean 10%, Cdca7 (1374540_at)","10% alcohol group, Mean Contr 6.195992",4.948
same,"Mean 10%, Cul2_predicted (1378127_at)","10% alcohol group, Mean Contr 6.258107",5.032
